{
  "source": "ChEMBL document CHEMBL4715869",
  "about": "“N-(Pyrimidin-2-yl)-1,2,3,4-tetrahydroisoquinolin-6-amine Derivatives as Selective Janus Kinase 2 Inhibitors for the Treatment of Myeloproliferative Neoplasms” (J Med Chem, 2020)",
  "key": {"SET-2 [1]": {"system": "SET-2", "assay": "Induction of apoptosis in human SET-2 cells assessed as necrotic cells at 0.2 uM incubated for 24 hrs by Annexin V/PI staining based flow cytometric analysis (reference value: 0.78%)", "assay_type": "functional"}, "SET-2 [2]": {"system": "SET-2", "assay": "Induction of apoptosis in human SET-2 cells assessed as necrotic cells at 0.4 uM incubated for 24 hrs by Annexin V/PI staining based flow cytometric analysis (reference value: 0.78%)", "assay_type": "functional"}, "SET-2 [3]": {"system": "SET-2", "assay": "Induction of apoptosis in human SET-2 cells assessed as late apoptotic cells at 0.4 uM incubated for 24 hrs by Annexin V/PI staining based flow cytometric analysis (reference value: 1.52%)", "assay_type": "functional"}, "[4]": {"assay": "Selectivity index, ratio of IC50 for inhibition of recombinant human TYK2 (875 to end residues) to IC50 for inhibition of recombinant human JAK2 (808 to end residues)"}, "[5]": {"assay": "Toxicity in NOD/SCID mouse xenografted with human SET2 cells assessed as animal death at 15 to 60 mg/kg, po qd administered for 16 days and measured after 36 days", "assay_type": "organism-based", "settings": "in vivo, 864 h, dose 15-60 mg/kg, time 36 day"}, "[6]": {"assay": "Toxicity in Balb/c mouse assessed as effect on hematocrit at 30 to 60 mg/kg, po administered daily for 14 days", "assay_type": "organism-based", "settings": "in vivo, 336 h, dose 30-60 mg/kg, time 14 day"}, "SET-2 [7]": {"system": "SET-2", "assay": "Induction of apoptosis in human SET-2 cells assessed as late apoptotic cells at 0.8 uM incubated for 24 hrs by Annexin V/PI staining based flow cytometric analysis (reference value: 1.52%)", "assay_type": "functional"}, "SET-2 [8]": {"system": "SET-2", "assay": "Induction of apoptosis in human SET-2 cells assessed as late apoptotic cells at 0.05 uM incubated for 24 hrs by Annexin V/PI staining based flow cytometric analysis (reference value: 1.52%)", "assay_type": "functional"}, "[9]": {"molecular_target": "Receptor-type tyrosine-protein kinase FLT3 (Homo sapiens) (UniProt P36888)", "assay": "Inhibition of FLT3 in human SET2 cells assessed as decrease in FLT3 phosphorylation at 1 to 1000 nM after 2 hrs by Western blot analysis", "assay_type": "cell-based", "settings": "dose 1-1000 nM"}, "SET-2 [10]": {"system": "SET-2", "assay": "Induction of apoptosis in human SET-2 cells assessed as live cells at 0.4 uM incubated for 24 hrs by Annexin V/PI staining based flow cytometric analysis (reference value: 96.23 %)", "assay_type": "functional"}, "[11]": {"molecular_target": "Non-receptor tyrosine-protein kinase TYK2 (Homo sapiens, UniProt P29597)", "sequence (P29597 whole entry)": "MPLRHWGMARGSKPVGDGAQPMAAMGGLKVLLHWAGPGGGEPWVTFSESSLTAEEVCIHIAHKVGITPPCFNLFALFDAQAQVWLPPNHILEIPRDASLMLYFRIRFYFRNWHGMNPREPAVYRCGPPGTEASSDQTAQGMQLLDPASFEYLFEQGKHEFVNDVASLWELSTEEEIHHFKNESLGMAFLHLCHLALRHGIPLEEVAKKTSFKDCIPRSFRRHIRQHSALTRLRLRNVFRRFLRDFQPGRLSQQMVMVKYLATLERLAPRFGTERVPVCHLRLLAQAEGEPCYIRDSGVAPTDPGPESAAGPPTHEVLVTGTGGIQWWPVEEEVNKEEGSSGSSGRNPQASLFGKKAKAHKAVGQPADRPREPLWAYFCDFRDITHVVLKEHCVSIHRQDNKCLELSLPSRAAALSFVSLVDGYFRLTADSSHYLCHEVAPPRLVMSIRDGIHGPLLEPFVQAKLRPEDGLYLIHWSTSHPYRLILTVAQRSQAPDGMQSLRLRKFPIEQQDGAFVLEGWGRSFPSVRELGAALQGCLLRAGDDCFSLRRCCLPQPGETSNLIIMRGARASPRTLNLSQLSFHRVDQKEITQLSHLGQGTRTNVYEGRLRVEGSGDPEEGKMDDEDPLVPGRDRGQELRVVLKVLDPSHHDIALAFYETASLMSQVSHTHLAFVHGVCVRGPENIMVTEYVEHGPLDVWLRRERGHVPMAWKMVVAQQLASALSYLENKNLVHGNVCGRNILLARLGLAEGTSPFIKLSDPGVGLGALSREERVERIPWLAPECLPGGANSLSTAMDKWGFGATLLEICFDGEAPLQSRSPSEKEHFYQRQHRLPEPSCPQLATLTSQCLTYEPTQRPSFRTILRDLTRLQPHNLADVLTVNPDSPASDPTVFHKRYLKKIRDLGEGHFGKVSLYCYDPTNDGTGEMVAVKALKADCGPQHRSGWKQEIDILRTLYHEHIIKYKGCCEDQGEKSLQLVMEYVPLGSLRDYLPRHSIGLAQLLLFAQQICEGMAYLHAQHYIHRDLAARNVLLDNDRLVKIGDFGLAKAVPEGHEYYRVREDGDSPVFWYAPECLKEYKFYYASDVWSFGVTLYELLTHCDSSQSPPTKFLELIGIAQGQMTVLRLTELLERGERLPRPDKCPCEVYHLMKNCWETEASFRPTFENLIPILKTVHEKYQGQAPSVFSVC", "assay": "Inhibition of recombinant human TYK2 (875 to end residues) using GGMEDIYFEFMGGKKK as substrate incubated for 40 mins in presence of [gamma33P]ATP by scintillation counting based radiometry assay"}, "SET-2 [12]": {"system": "SET-2", "assay": "Induction of apoptosis in human SET-2 cells assessed as necrotic cells at 1.6 uM incubated for 24 hrs by Annexin V/PI staining based flow cytometric analysis (reference value: 0.78%)", "assay_type": "functional"}, "SET-2 [13]": {"system": "SET-2", "assay": "Antitumor activity against human SET2 cells xenografted in NOD/SCID mouse assessed as tumor growth inhibition at 30 mg/kg, po qd administered for 16 days and measured every 2 days relative to control", "assay_type": "functional", "settings": "SET-2, po, 384 h, time 16 day, read-out: TGI"}, "[14]": {"system": "Tyrosine-protein kinase JAK2 (Homo sapiens), O60674 [V617F]", "sequence (O60674 whole entry V617F)": "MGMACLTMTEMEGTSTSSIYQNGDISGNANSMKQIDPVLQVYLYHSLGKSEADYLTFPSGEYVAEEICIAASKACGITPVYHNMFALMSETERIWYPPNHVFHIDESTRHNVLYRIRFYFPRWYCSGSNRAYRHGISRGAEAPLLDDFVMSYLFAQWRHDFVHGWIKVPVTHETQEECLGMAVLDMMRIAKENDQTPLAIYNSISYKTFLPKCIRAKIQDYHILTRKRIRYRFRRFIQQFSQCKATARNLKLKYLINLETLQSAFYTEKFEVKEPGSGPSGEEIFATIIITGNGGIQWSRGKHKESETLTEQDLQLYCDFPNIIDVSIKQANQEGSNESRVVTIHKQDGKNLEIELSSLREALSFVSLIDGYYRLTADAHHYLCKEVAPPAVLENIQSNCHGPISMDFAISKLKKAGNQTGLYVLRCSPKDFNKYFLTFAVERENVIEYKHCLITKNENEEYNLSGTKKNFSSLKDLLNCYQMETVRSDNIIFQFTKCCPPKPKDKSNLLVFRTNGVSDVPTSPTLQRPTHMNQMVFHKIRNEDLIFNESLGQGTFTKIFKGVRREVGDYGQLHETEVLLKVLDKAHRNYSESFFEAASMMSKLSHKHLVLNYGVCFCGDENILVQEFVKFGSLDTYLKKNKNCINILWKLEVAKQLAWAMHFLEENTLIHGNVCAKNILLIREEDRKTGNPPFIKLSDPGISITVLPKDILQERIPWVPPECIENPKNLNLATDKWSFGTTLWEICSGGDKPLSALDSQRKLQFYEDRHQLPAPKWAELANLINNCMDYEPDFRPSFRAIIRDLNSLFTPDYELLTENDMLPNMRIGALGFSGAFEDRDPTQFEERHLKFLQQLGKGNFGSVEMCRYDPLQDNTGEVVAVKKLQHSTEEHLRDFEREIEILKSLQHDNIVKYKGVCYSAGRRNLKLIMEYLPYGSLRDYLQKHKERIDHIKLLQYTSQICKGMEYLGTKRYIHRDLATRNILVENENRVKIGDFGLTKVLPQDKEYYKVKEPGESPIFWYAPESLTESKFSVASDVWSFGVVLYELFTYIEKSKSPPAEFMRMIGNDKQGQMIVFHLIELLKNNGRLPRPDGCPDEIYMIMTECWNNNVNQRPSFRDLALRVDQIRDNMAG", "assay": "Inhibition of JAK2 V617F mutant in human SET-2 cells assessed as reduction in STAT5 phosphorylation after 2 hrs by Western blot analysis", "assay_type": "cell-based", "settings": "SET2, dose 1-1000 nM"}, "SET-2 [15]": {"system": "SET-2", "assay": "Induction of apoptosis in human SET-2 cells assessed as live cells at 0.05 uM incubated for 24 hrs by Annexin V/PI staining based flow cytometric analysis (reference value: 96.23 %)", "assay_type": "functional"}, "[16]": {"assay": "AUC (0 to t) in Sprague-Dawley rat at 5 mg/kg, iv administered […] measured upto 24 hrs by LC/MS/MS analysis", "assay_type": "ADME, organism-based", "design": "route intravenous, dose 5 mg/kg, time <=24", "settings": "in vivo"}, "SET-2 [17]": {"system": "SET-2", "assay": "Induction of cell cycle arrest in human SET2 cells assessed as accumulation at G0/G1 phase incubated for 24 hrs by propidium iodide staining based flow cytometry", "assay_type": "functional", "settings": "dose 10-160 nM"}, "[18]": {"molecular_target": "Signal transducer and activator of transcription 3 (Mus musculus) (UniProt P42227)", "sequence (P42227 whole entry)": "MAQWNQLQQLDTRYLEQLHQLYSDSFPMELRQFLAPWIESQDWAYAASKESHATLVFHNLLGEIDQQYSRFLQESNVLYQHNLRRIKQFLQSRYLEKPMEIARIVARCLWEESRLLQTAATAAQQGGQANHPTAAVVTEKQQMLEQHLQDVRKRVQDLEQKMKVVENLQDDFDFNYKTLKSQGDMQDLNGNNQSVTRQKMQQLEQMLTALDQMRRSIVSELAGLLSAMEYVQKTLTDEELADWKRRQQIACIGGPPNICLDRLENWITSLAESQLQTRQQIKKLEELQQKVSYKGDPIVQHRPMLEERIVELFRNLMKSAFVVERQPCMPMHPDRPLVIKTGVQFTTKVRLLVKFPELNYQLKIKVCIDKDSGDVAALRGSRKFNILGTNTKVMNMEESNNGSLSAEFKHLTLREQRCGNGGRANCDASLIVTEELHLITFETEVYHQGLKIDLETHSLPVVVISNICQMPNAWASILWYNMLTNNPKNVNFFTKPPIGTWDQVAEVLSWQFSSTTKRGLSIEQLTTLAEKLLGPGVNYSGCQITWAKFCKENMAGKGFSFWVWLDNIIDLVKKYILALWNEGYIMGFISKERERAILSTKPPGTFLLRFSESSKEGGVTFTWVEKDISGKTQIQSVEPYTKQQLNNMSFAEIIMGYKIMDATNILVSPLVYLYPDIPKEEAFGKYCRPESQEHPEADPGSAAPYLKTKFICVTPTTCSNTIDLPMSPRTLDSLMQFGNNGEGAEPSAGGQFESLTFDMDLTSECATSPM", "assay": "Inhibition of STAT3 phosphorylation in mouse BAF3 cells at 1000 nM after 2 hrs by Western blot analysis", "assay_type": "cell-based"}, "[19]": {"assay": "Oral bioavailability in Sprague-Dawley rat at 5 mg/kg administered via gavage measured upto 24 hrs by LC/MS/MS analysis", "assay_type": "ADME, organism-based", "settings": "in vivo"}, "[20]": {"assay": "Cytotoxicity against rat H9c2(2-1) cells assessed as reduction in cell viability incubated for 72 hrs by MTT assay", "assay_type": "cell-based", "settings": "H9c2, 72 h"}, "SET-2 [21]": {"system": "SET-2", "assay": "Induction of apoptosis in human SET-2 cells assessed as live cells at 0.8 uM incubated for 24 hrs by Annexin V/PI staining based flow cytometric analysis (reference value: 96.23 %)", "assay_type": "functional"}, "SET-2 [22]": {"system": "SET-2", "assay": "Induction of apoptosis in human SET-2 cells assessed as early apoptotic cells at 0.05 uM incubated for 24 hrs by Annexin V/PI staining based flow cytometric analysis (reference value: 1.47 %)", "assay_type": "functional"}, "[23]": {"assay": "Tmax in male Sprague-Dawley rat at 5 mg/kg, po administered via gavage measured upto 24 hrs by LC/MS/MS analysis", "assay_type": "ADME, organism-based", "settings": "in vivo"}, "[24]": {"assay": "Intrinsic clearance in rat liver microsomes", "assay_type": "ADME, Microsome", "settings": "read-out: CLH (converted)"}, "[25]": {"molecular_target": "Receptor-type tyrosine-protein kinase FLT3 (Homo sapiens, UniProt P36888, D835Y)", "assay": "Inhibition of recombinant human FLT3 D835Y mutant (564 to end residues) using EAIYAAPFAKKK as substrate at 40 mins in presence of [gamma-33ATP] by scintillation counting based radiometry assay"}, "[26]": {"assay": "Selectivity index, ratio of IC50 for inhibition of human JAK1 (866 to end residues) to IC50 for inhibition of recombinant human JAK2 (808 to end residues)"}},
  "note": "Calls of active or inactive are those of the source. The rule behind the calls is not given here.",
  "data": [
    {"smiles": "Cc1cnc(Nc2ccc3c(c2)CCN(C(=O)/C=C/CN(C)C)C3)nc1-c1cnn(C(C)C)c1", "values": [
      {"measurement": "Activity", "setting": "SET-2 [1]", "value": 0.63, "unit": "%"},
      {"measurement": "Activity", "setting": "SET-2 [2]", "value": 0.48, "unit": "%"},
      {"measurement": "Activity", "setting": "SET-2 [3]", "value": 8.68, "unit": "%"},
      {"measurement": "Ratio IC50", "setting": "[4]", "value": 25},
      {"measurement": "Activity", "setting": "[5]", "value": "Toxic"},
      {"measurement": "Activity", "setting": "[6]", "value": "Toxic"},
      {"measurement": "Activity", "setting": "SET-2 [7]", "value": 40.19, "unit": "%"},
      {"measurement": "Activity", "setting": "SET-2 [8]", "value": 2.34, "unit": "%"},
      {"measurement": "inhibition", "setting": "[9]", "value": "inactive"},
      {"measurement": "Activity", "setting": "SET-2 [10]", "value": 84.92, "unit": "%"},
      {"measurement": "IC50", "setting": "[11]", "value": 0.075, "unit": "µM"},
      {"measurement": "Activity", "setting": "SET-2 [12]", "value": 4.04, "unit": "%"},
      {"measurement": "inhibition in vivo at 30 mg/kg", "setting": "SET-2 [13]", "value": 67.8, "unit": "%"},
      {"measurement": "inhibition", "setting": "[14]", "value": "Dose-dependent effect"},
      {"measurement": "Activity", "setting": "SET-2 [15]", "value": 94.6, "unit": "%"},
      {"measurement": "AUC(0-t) at 24 h", "setting": "[16]", "value": 0.988, "unit": "µg·h/mL"},
      {"measurement": "Activity", "setting": "SET-2 [17]", "value": "Dose-dependent effect"},
      {"measurement": "inhibition", "setting": "[18]", "value": "inactive"},
      {"measurement": "bioavailability", "setting": "[19]", "value": 25.7, "unit": "%"},
      {"measurement": "IC50", "setting": "[20]", "value": 6.93, "unit": "µM"},
      {"measurement": "Activity", "setting": "SET-2 [21]", "value": 49.33, "unit": "%"},
      {"measurement": "Activity", "setting": "SET-2 [22]", "value": 2.7, "unit": "%"},
      {"measurement": "Tmax", "setting": "[23]", "value": 54, "unit": "min"},
      {"measurement": "CLint scaled", "setting": "[24]", "value": 25.4, "unit": "L/h/kg"},
      {"measurement": "IC50", "setting": "[25]", "value": 0.062, "unit": "µM"},
      {"measurement": "Ratio IC50", "setting": "[26]", "value": 14}
    ]}
  ]
}
